Laboratory results reported in US10166199B2, “Transdermal patch comprising a ropivacaine formulation” (BUZZZ PHARMACEUTICALS LIMITED, priority 2013, dated 2019).
Like-named read-outs stand apart in the source and are kept apart here. One block for each compound: values may come before it.

Assays:
[1] = Excipient compatibility with Duro-Tak 87-900A adhesive; format: physicochemical; details: ropivacaine 4% (w/w) and excipient 5% (w/w) in Duro-Tak 87-900A; miscible, no precipitate after 72 hours
Protocol: (§1) Further excipients were assessed for ropivacaine solubility and compatibility with Duro-Tak® adhesive 87-900A. Adhesive compatibility was assessed by mixing ropivacaine (4% (w/w)) and excipient (5% (w/w)) with Duro-Tak® 87-900A.

[2] = Approximate ropivacaine solubility in excipients, assessed visually; format: physicochemical
Protocol: Approximate solubilities were assessed visually by gradual addition of ropivacaine to a known volume of excipient at room temperature until saturation was observed.
as §1

[3] = local anaesthetic during cataract surgery, cited from earlier work
[4] = solubility of ropivacaine in the named excipient, gradual addition at room temperature, visual

Compound: CCCCCCCC/C=C\CCCCCCCC(=O)OCC(O)CO (stereo not shown) [Capmul-GMO-50, glycerol monooleate]
900A Compatible [1]: no

Compound: CO[C@H]1CO[C@H]2[C@@H]1OC[C@H]2OC [DMI, dimethylisosorbide]
% Solubility (ropivacaine in candidate excipient) [2, 4]: 2.8-3.6 % w/v

Compound: CCCN1CCCC[C@H]1C(=O)Nc1c(C)cccc1C [ropivacaine, (2S)—N-(2,6-dimethylphenyl)-1-propyl-2-piperidinecarboxamide]
potency relative to lidocaine ([3]; dose-for-dose): as much as four times as potent as lidocaine | half life relative to lidocaine [3]: longer half life

Compound: sorbitan trioleate [Span 85]
900A Compatible [1]: yes

Other lines, results leading:

900A Compatible [1]: yes | % Solubility (ropivacaine in candidate excipient) [2, 4]: 4.1-4.6 % w/v
Compound: CCOCCOCCO [Transcutol P, ethoxy diglycol]

% Solubility (ropivacaine in candidate excipient) [2]: 1.2-2.1 % w/v
Compound: apricot kernel oil PEG-6 esters [Labrafil M 1944 CS]

% Solubility (ropivacaine in candidate excipient) [2]: 1.3-1.8 % w/v
Compound: propylene glycol dicaprylate/dicaprate [Labrafac PG]

900A Compatible [1]: no
Compound: sorbitan monooleate [Span 80]
